Measured values as given in patent US7371536B2, “Methods for transporting vitamin C” (priority 1999, dated 2008).

Legend:
rat SVCT1 = target: T1, rat SVCT1 (Rattus norvegicus, UniProt Q9WTW7); test: Two-microelectrode voltage-clamp of Xenopus oocytes expressing rat SVCT1; assay type: cell-based
T1 construct: expressed in transfected cells; host or cells: Xenopus laevis oocytes injected with cRNA
Experimental: Rat SVCT1 and SVCT2 clones were obtained by isolating SVCT1 cDNA from rat kidney by expression cloning as described in Hediger et al., Methods Enzymol. 296:17-52 (1998). The SVCT2 cDNA was subsequently isolated by PCR-based homology screening of a rat brain cDNA library. […] Radiotracer and voltage-clamp experiments were performed (at 22° C.) in Xenopus oocytes two to seven days after injection with ˜25 ng of SVCT1 or SVCT2 cRNA synthesized in vitro. Radiotracer uptake was determined by incubating 6-10 oocytes for 30 or 60 min in standard 100 mM Na^+ or Na^+-free media with 10-600 μM L-[^14C]ascorbic acid.
Functional characterization of SVCT1 and SVCT2 in Xenopus oocytes—Oocytes were isolated from Xenopus laevis (under 2-aminoethylbenzoate anaesthesia), treated with collagenase A and stored at 18° C. in modified Barths' medium. Oocytes were injected with ≈25 ng of SVCT1 or SVCT2 cRNA synthesized in vitro, or water only (control), and incubated 2-7 days before radiotracer or voltage-clamp experiments were performed. Standard Na^+ uptake medium comprised 100 mM NaCl, 2 mM KCl, 1 mM CaCl2, 1 mM MgCl2, 10 mM HEPES (pH 7.5 with Tris base). For Na^+-free or low-Na^+ media, NaCl was replaced by equimolar choline chloride; likewise, Cl^− was replaced by gluconate for Cl^−-free medium. For pH-sensitivity experiments, Na^+ media were buffered at pH 5.5-8.0 using 0-5 mM MES, 0-5 mM HEPES and 0-5 mM Tris base. L-Ascorbic acid-containing solutions were freshly-prepared (without dithiothreitol) and used immediately.
Radiotracer uptake was determined by incubating 6-10 oocytes for 30 or 60 min in standard Na^+ or Na^+-free media (at 22° C.) with 10-600 μM L-[1-^14C]ascorbic acid (final specific activity 0.3 GBq/mmol). Oocytes were solubilized with 10% SDS and [^14C]-content was measured by liquid scintillation counting. A two-microelectrode voltage-clamp was used to measure currents in control oocytes and oocytes injected with rat SVCT1 or rat SVCT2 cRNA. Microelectrodes (resistance 0.5-5 MΩ) were filled with 3 M KCl. Oocytes were superfused at 22° C. in standard Na^+ medium and clamped at a holding potential (Vh) of −50 mV. For continuous current monitoring at Vh=−50 mV, the current was low-pass filtered at 20 Hz (sampling at 1 Hz). Additionally, step-changes in membrane potential (Vm) were applied (from +50 mV to −150 mV in 20-mV increments), each for a duration of 100 ms, before and after the addition of substrate; current was low-pass filtered at 500 Hz and digitized at 5 kHz. Test solutions were always washed out with substrate-free medium (100 mM choline chloride) at pH 7.5 for several minutes. Steady-state data (obtained by averaging the points over the final 16.7 ms at each Vm step when step-changes were applied) were fitted to equation (1) below, for which I is the evoked current (i.e., the difference in steady-state current measured in the presence and absence of substrate), Imax the derived current maximum, S the concentration of substrate S (Na^+ or L-ascorbic acid),
[formula] the substrate concentration at which current was half-maximal, and nH the Hill coefficient for S. (For radiotracer experiments, I was replaced with velocity V and Imax replaced with the derived maximal velocity, Vmax.)

human SVCT1 = target: T2, human SVCT1 (Homo sapiens, UniProt Q9UHI7); test: L-[14C]ascorbic acid radiotracer uptake in Xenopus oocytes expressing human SVCT1; assay type: cell-based
T2 construct: expressed in transfected cells; host or cells: Xenopus laevis oocytes injected with cRNA (vector pTLN2)
T2 sequence (Q9UHI7 whole entry): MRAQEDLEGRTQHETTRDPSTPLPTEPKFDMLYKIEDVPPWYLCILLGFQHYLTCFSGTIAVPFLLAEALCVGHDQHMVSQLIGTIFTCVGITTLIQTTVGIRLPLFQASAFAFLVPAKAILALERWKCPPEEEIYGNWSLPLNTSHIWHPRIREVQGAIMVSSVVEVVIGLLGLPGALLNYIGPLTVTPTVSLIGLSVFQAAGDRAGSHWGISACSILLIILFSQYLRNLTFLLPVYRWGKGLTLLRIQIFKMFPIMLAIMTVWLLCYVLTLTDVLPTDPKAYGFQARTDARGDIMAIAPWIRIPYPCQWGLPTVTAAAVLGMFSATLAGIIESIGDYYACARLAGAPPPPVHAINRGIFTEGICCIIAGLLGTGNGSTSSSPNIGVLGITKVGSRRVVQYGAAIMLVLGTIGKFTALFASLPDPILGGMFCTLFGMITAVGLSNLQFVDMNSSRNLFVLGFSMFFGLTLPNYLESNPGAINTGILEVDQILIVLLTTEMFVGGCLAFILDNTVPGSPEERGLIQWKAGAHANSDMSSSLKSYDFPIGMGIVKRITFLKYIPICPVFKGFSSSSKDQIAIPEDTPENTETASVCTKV
Experimental: Functional characterization in Xenopus oocytes—SVCT1 and SVCT2 cDNAs were subcloned into the pTLN2 vector (to improve functional expression in oocytes) and used for cRNA synthesis in vitro using the MEGAscript kit and T7 RNA polymerase (from Ambion). Oocytes were isolated from Xenopus laevis, treated with collagenase A and maintained at 18° C. in modified Barths' medium. Oocytes were injected with 15 ng SVCT1 or SVCT2 cRNA or water only. The radiotracer uptake and voltage-clamp experiments described below were conducted 2-5 days post-injection in standard medium of composition 100 mM NaCl, 2 mM KCl, 1 mM CaCl2, 1 mM MgCl2, and 10 mM HEPES (buffered to pH 7.5 with Tris base). For low-Na^+ or Na^+-free media, NaCl was replaced with choline chloride. For pH-dependence experiments, Na^+ media were buffered to between pH 5.5 and pH 8.0 using 0-5 mM MES, 0-5 mM HEPES and 0-5 mM Tris base. L-Ascorbic acid-containing solutions were always freshly prepared and used immediately. […] Oocytes were solubilized with 10% SDS and carbon-14 content measured by liquid scintillation counting. A two-microelectrode voltage-clamp was used to measure currents associated with SVCT1 expressed in oocytes. Oocytes were superfused at 22° C. in standard Na^+ medium and clamped at −50 mV. Current was continuously monitored by sampling at 1 Hz. Test solutions were always washed out with substrate-free, Na^+-free medium at pH 7.5 for several minutes. Once again, saturation kinetics data were fit to a modified Hill equation in which I and Imax were replaced by uptake V and maximal velocity Vmax for analysis of radiotracer uptake data.

T1 sequence (Q9WTW7 whole entry): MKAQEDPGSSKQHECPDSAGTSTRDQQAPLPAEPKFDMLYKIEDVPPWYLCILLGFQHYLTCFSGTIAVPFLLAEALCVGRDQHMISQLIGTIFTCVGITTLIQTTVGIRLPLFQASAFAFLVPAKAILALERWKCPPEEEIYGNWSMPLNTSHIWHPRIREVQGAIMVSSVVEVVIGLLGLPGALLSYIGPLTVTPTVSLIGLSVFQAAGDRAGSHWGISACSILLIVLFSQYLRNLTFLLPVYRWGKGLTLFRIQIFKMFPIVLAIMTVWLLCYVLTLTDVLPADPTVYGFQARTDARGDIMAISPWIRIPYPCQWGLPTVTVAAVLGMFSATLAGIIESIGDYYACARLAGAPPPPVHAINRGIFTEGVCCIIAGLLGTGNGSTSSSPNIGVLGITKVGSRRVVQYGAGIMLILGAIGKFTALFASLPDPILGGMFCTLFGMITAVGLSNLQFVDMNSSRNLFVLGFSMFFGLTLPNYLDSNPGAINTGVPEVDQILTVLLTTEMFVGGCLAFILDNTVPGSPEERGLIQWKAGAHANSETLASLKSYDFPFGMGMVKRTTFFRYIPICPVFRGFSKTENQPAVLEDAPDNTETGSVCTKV

Structure (SMILES): O=C1O[C@H]([C@@H](O)CO)C(O)=C1O [L-ascorbic acid]
- Hill coefficient (nH) (rat SVCT1; evoked currents, −50 mV): ≈ 1
- reduction of evoked currents at pH 5.5 versus pH 7.5 (rat SVCT1; extracellular pH 5.5 compared with pH 7.5): 50%
- L-ascorbic acid-evoked reversible inward currents (rat SVCT1; oocytes expressing SVCT1, in the presence of Na^+): up to −100 nA
- K0.5 (L-ascorbic acid concentration at which currents were half-maximal) (rat SVCT1; −50 mV, 100 mM Na^+): 30 µM
- stimulation of uptake compared with water-injected control oocytes (human SVCT1; 500 μM L-[14C]ascorbic acid): 200 fold
- uptake of L-[14C]ascorbic acid (human SVCT1; 500 μM L-[14C]ascorbic acid): 15.5±1.2 pmol/min per oocyte
- Hill coefficient (nH) (human SVCT1; radiotracer uptake): ~1
- half-maximal concentration (K0.5) of uptake (human SVCT1; radiotracer uptake, Michaelis-Menten-type saturation): ≈ 90 μM
